In BindingDB's records for doi:10.1016/j.bmcl.2003.09.092 (Virginia Commonwealth University, 2003) one finds Ki data, which are given here for one compound.

SMILES strings stand for the structures.

This assay is described as follows: Binding affinity for rat imidazoline receptor I-1 from crude P2 membranes.

Consider `C(=C\c1ccccc1)/C1=NCCN1` [2-((E)-Styryl)-4,5-dihydro-1H-imidazole], for which the affinity, expressed as Ki, was 10 nM. This lies in the double-digit nanomolar range.

What is called Ki is a measure of affinity in units of concentration, obtained from inhibition or displacement.
